{
  "source": "patent US20030060508A1",
  "about": "“Polyunsaturated fatty acid fractions of Nigella sativa L. seeds” (priority 2000, published 2003)",
  "key": {"[1]": {"test_system": "writhing induced by parabenzoquinone", "experiment": "analgesic activity, writhing method", "type": "in vivo, mice", "conditions": "5.0 mg/100 g.b.w.", "protocol": "The analgesic activity of the Nigella sativa L. polyunsaturated fatty acid fraction was studied using the writhing method described by Okun et al. (1963). Thirty mature mice of both sexes weighing from 20 to 25 gm were divided into 3 groups of 10 mice each. The first group served as a control and the second group served as a standard (treated with paracetamol in a dose of 5 mg/100 gm body weight). The third group was injected subcutaneously with the Nigella sativa L. polyunsaturated fatty acid fraction. After 30 minutes, mice were injected intraperitoneally with 0.25 ml of a solution of parabenziquinone (0.2 mg/ml in saline). […] Animals devoid of writhing in each group were recorded and the analgesic potencies of paracetamol and the Nigella sativa L. polyunsaturated fatty acid fraction were determined as percent protection against writhing."}, "[2]": {"test_system": "guinea pigs exposed to histamine aerosol (0.25%)", "experiment": "prophylactic anti-asthmatic effect, preconvulsive time", "type": "in vivo", "conditions": "5 microg/kg, treated for 21 days", "protocol": "This example explains in vivo studies to evaluate the prophylactic (protective) anti-asthmatic effect of the Nigella sativa L. polyunsaturated fatty acid fraction. The prophylactic antiasthmatic effect was evaluated in vivo by measurement of the preconvulsive time in guinea pigs exposed to histamine aerosol (0.25%).\nGuinea pigs were divided into three groups with 8 animals per group. The first group received a saline injection to serve as negative control. The second group received ketotifen, which is the standard treatment to serve as positive control. The third group received 200 mg/kg of the Nigella sativa L. polyunsaturated fatty acid fraction.\nAnimals in all groups were treated for 21 days, after which they were exposed to histamine (0.25%) aerosol and the preconvulsive time was recorded."}, "[3]": {"test_system": "ova albumin inhalation in sensitized guinea pigs", "experiment": "time to onset of tachypnea in sensitized animals", "type": "in vivo", "conditions": "50 microg/kg, treated for 21 days", "protocol": "The second protocol involved sensitized animals. Animals were sensitized by injecting ova albumin in two doses 100 mg. each (S.C. and I.P., simultaneously). Animals were resensitized 15 days later. Guinea pigs were divided into three groups with 8 animals per group. The first group received a saline injection to serve as negative control. The second group received ketotifen which is the standard treatment to serve as positive control. The third group received 200 mg/kg each of Nigella sativa L. polyunsaturated fatty acid fraction. Animals in all groups were treated for 21 days following which they were exposed to ova albumin inhalation and time to onset of tachypnea was recorded as shown in the table below (*Statistically significant from the control group (P<0.05))."}, "[4]": {"test_system": "histamine-induced bronchospasm in guinea pigs", "experiment": "protection from histamine-induced bronchospasm", "type": "in vivo", "conditions": "239 mg/kg i.p.", "protocol": "The anti-histamine effects of the Nigella sativa L. polyunsaturated fatty acid fraction on induced bronchospasm in guinea pigs was evaluated using the methods described by Armitage et al, Brit. J Pharmacol., 16:59-76 (1961). Willis, J. Pharm. Pharmacol., 21:126 (1969).\nThe prophylactic anti-allergic effects were evaluated in guinea pigs (300-400 grams). The animals were divided into 5 groups (10 animals each) and treated i.p. as follows: (1) animals treated with saline (control); (2) animals treated with diphenydramine (239 mg/kg/day); (3) animals treated with 50 mg/kg polyunsaturated fatty acid fraction; (4) animals treated with 100 mg/kg polyunsaturated fatty acid fraction; and (5) animals treated with 150 mg/kg polyunsaturated fatty acid fraction.\nAnimals were exposed 30 minutes after their i.p. injection of diphenydramine and polyunsaturated fatty acid fraction to histamine aerosol (1%) for 3 minutes. Bronchospasm and loss of rightening after 30, 60 and 90 minutes was calculated according to the following formula (Dawson and Sweatman, Br. J. Pharmacol., 71:387-398 (1980)): [formula]"}, "[5]": {"test_system": "Corynebacterium pyogenes", "experiment": "Comparative antibacterial activity with ampicillin, bore method", "type": "cell-based", "conditions": "1 μg/mL, read-out: Diameter of Zone of Inhibition", "protocol": "(§1) […] The values are the average of three separate experiments. The anti-bacterial activity of the tested isolates was detected in vitro using the bore method. The nutrient agar medium containing one bacterial strain was poured into sterilized petri-dishes, each 20×120 mm, then left for 10 minutes to dry. Using the borer No. 5, a central bore was made in each plate, then another 4 were arranged it. The effect of different concentrations of the tested isolates on certain microorganisms was tested in 2 plates.\n(§2) The comparative antibacterial activity of ampicillin and the Nigella sativa L. polyunsaturated fatty acid fraction against certain bacterial strains (Streptococcus pyogenes, Corynebacterium pyogenes and Salmonella typhi murium) was preformed in vitro using the bore method as described by Cooper and Woodman (1964) as previously described. The effect of ampicillin (1 μg/mL) and the Nigella sativa L. polyunsaturated fatty acid fraction (at 1 mg/ml) on the previously mentioned bacteria was tested."}, "[6]": {"test_system": "Streptococcus pyogenes", "experiment": "Comparative antibacterial activity with ampicillin, bore method", "type": "cell-based", "conditions": "1 μg/mL, read-out: Diameter of Zone of Inhibition", "protocol": "as §1, §2"}, "[7]": {"test_system": "Salmonella typhi murium", "experiment": "Comparative antibacterial activity with ampicillin, bore method", "type": "cell-based", "conditions": "Salmonella enterica, read-out: Diameter of Zone of Inhibition", "protocol": "as §1, §2"}, "[8]": {"test_system": "rat paw formalin edema", "experiment": "anti-inflammatory activity, rat paw formalin edema", "type": "in vivo, rats", "conditions": "3 mg/100 g.b.w. intraperitoneally", "protocol": "The anti-inflammatory activity of the Nigella sativa L. polyunsaturated fatty acid fraction was carried out in rats using a modification of rat paw formalin edema as described by Domemjoz et al. (1965).\nFifteen mature albino rats of both sexes weighing 150-200 gm were divided into 3 groups of 5 rats each. At the beginning of the experiment, the thickness of the rat left hind paw was measured using a Vernier caliper. Thereafter, rats of the first group were kept as a control and those of the second group (standard) were injected intraperitoneally with phenylbutazone in a dose of 3 mg/100 gm body weight. Rats of the third group were injected with the Nigella sativa L. polyunsaturated fatty acid fraction. After 30 minutes, inflammation was induced by subcutaneous injection of 0.1 mL of 6% solution of formalin in normal saline into the left hind paw.\nThe anti-inflammatory effect of the Nigella sativa L. polyunsaturated fatty acid fraction was estimated by comparing the magnitude of the paw swelling in the pretreated animals with that of the control animals. Measurement of rat paw thickness was carried out at hourly intervals for a period of 3 hours."}},
  "data": [
    {"smiles": "CC(=O)Nc1ccc(O)cc1", "note": "[Paracetamol, paracetamol]", "values": [
      {"measurement": "% Protection, 120 minutes", "setting": "[1]", "value": 20, "unit": "%"},
      {"measurement": "% protection 30 minutes", "setting": "[1]", "value": 100, "unit": "%"},
      {"measurement": "% protection 60 minutes", "setting": "[1]", "value": 60, "unit": "%"},
      {"measurement": "% protection 90 minutes", "setting": "[1]", "value": 40, "unit": "%"}
    ]},
    {"smiles": "CN1CCC(=C2c3ccccc3CC(=O)c3sccc32)CC1", "note": "[ketotifen]", "values": [
      {"measurement": "% of Prophylaxis (Protection)", "setting": "[2]", "value": 82.85, "unit": "%"},
      {"measurement": "% of Prophylaxis", "setting": "[3]", "value": 44.4, "unit": "%"}
    ]},
    {"smiles": "CN(C)CCOC(c1ccccc1)c1ccccc1", "note": "[diphenhydramine]", "values": [
      {"measurement": "% protection 30 minutes", "setting": "[4]", "value": 100, "unit": "%"},
      {"measurement": "% protection 60 minutes", "setting": "[4]", "value": 100, "unit": "%"},
      {"measurement": "% protection 90 minutes", "setting": "[4]", "value": 90, "unit": "%"}
    ]},
    {"smiles": "CC1(C)S[C@@H]2[C@H](NC(=O)[C@H](N)c3ccccc3)C(=O)N2[C@H]1C(=O)O", "note": "[Ampicillin, ampicillin]", "values": [
      {"measurement": "zone of inhibition at 1 µg/mL", "setting": "[5]", "value": "44.7 ± 0.8", "unit": "mm"},
      {"measurement": "zone of inhibition at 1 µg/mL", "setting": "[6]", "value": "26.7 ± 0.3", "unit": "mm"},
      {"measurement": "zone of inhibition at 1 µg/mL", "setting": "[7]", "value": "13.1 ± 0.2", "unit": "mm"}
    ]},
    {"smiles": "CCCCC1C(=O)N(c2ccccc2)N(c2ccccc2)C1=O", "note": "[Phenylbutazone, phenylbutazone]", "values": [
      {"measurement": "Rat Paw Thickness, 1 Hour", "setting": "[8]", "value": "5.85 ± 0.15", "unit": "mm"},
      {"measurement": "Rat Paw Thickness, 2 Hours", "setting": "[8]", "value": "5.71 ± 0.09", "unit": "mm"},
      {"measurement": "Rat Paw Thickness, 3 Hours", "setting": "[8]", "value": "5.82 ± 0.05", "unit": "mm"}
    ]}
  ]
}
